Experimental data reported in patent US20220265603A1, “HEPATIC FIBROSIS-INHIBITING AGENT AND BROWN FAT CELL-ACTIVATING AGENT CONTAINING TAXIFOLIN” (NATIONAL HOSPITAL ORGANIZATION, priority 2019, published 2022).

Legend:
[1] = tested on: fatty acid oxidation-related genes; assay: Liver fatty acid oxidation-related gene expression, RT PCR; type: in vivo, C57BL/6J mice; settings: high-fat diet+3% taxifolin vs high-fat diet only, 12 weeks
[2] = Food ingestion experiment: body weight and food intake; type: in vivo, C57BL/6J mice
Procedure: C57BL/6J mice were used as experimental animals. They were purchased at the age of 7 weeks from CLEA Japan, Inc. and randomly divided into four groups at the age of 8 weeks after 1 week of acclimation as shown in Table 1 below. They were allowed to eat and drink freely, and their food intake and body weight were measured once a week. Fasting blood glucose was measured on the first day of the feeding experiment and once every 4 weeks thereafter (at 4, 8, and 12 weeks after the start of the feeding). At the end of 12 weeks, an intraperitoneal glucose tolerance test (IPGTT) was performed to analyze glucose tolerance. Rectal temperature was also measured at 8 and 12 weeks follow-up (Table 2).

[3] = non-patent document 9; cited from earlier work
[4] = tested on: F4/80, TNF-α, IL-1β gene expression; assay: Liver tissue inflammation index gene expression, RT PCR; type: in vivo, C57BL/6J mice; settings: high-fat diet+3% taxifolin vs high-fat diet only, 12 weeks
From the text: F4/80, TNF-α, IL-1β gene expression: Real-time Quantitative RT PCR

[5] = tested on: P38 MAPK, NF-κB p65, JNK phosphorylation; assay: Inflammation induction signal pathway activity in liver, Western blotting; type: in vivo, C57BL/6J mice; settings: high-fat diet+3% taxifolin vs high-fat diet only, 12 weeks
From the text: P38 MAPK phosphorylation, NF-κB p65 phosphorylation, JNK phosphorylation: Western blotting

[6] = Fasting blood glucose and intraperitoneal glucose tolerance test (IPGTT); type: in vivo, C57BL/6J mice; settings: 12 weeks
Procedure: (§1) They were allowed to eat and drink freely, and their food intake and body weight were measured once a week. Fasting blood glucose was measured on the first day of the feeding experiment and once every 4 weeks thereafter (at 4, 8, and 12 weeks after the start of the feeding). At the end of 12 weeks, an intraperitoneal glucose tolerance test (IPGTT) was performed to analyze glucose tolerance. Rectal temperature was also measured at 8 and 12 weeks follow-up (Table 2). glucose tolerance: The area under the blood glucose curve (AUC) was calculated from the blood glucose fluctuation curve from fasting blood glucose level to 120 min after ingestion using the trapezoidal formula.

[7] = tested on: αSMA, PAI1, TGF-β1, Type1 collagen gene expression; assay: Liver fibrosis index gene expression, RT PCR; type: in vivo, C57BL/6J mice; settings: high-fat diet+3% taxifolin vs high-fat diet only, 12 weeks
From the text: αSMA, PAI1, TGF-β, 1-type Collagen gene expression: Real-time Quantitative RT PCR

[8] = tested on: anti-oxidation enzymes (Mn-SOD, CuZn-SOD, Catalase, GP-x); assay: Anti-oxidation enzyme gene expression, RT PCR; type: in vivo, C57BL/6J mice; settings: 12 weeks
From the text: Anti-oxidation enzyme (Mn-SOD, CuZn-SOD, Catalase, GPx) gene expression: Real-time Quantitative RT PCR

[9] = Rectal temperature measurement; type: in vivo, C57BL/6J mice; settings: normal diet+3% taxifolin group
Procedure: as §1, with “2).” for “2). glucose tolerance: The area under the blood glucose curve (AUC) was calculated from the blood glucose fluctuation curve from fasting blood glucose level to 120 min after ingestion using the trapezoidal formula.”

[10] = tested on: lipid peroxidation; assay: Blood and liver tissue lipid peroxidation (MDA) assay; type: in vivo, C57BL/6J mice; settings: 12 weeks
From the text: Blood and liver tissue lipid peroxidation: Lipid Peroxidation (MDA) Colorimetric Assay Kit (BioVision, Inc.)

[11] = tested on: acute pancreatitis model mouse; settings: non-patent document 10; cited from earlier work
[12] = tested on: liver tissue; assay: Histological analysis of the liver (HE, Azan, SiriusRed, anti-F4/80); type: in vivo, C57BL/6J mice; settings: 12 weeks
Procedure: Liver samples were partially trimmed for tissue observation, washed, immersed in 4% paraformaldehyde, and fixed at 4° C. overnight. The fixed samples were washed, dehydrated in an ascending ethanol series, and paraffin-embedded. (vii) Histological Analysis of the Liver Observation of morphology and fat accumulation: Hematoxylin Eosin (HE) staining Observation of fibrosis: Azan staining, SiriusRed staining, immunohistochemistry (anti-F4/80 antibody) (viii) Analysis of Brown Adipocytes and UCP1 Target tissue: Brown adipose tissue Target: UCP1 gene Means of analysis: real-time RT PCR analysis

[13] = Blood concentration and biochemical test; type: in vivo, C57BL/6J mice; settings: high-fat diet+3% taxifolin vs high-fat diet only, 12 weeks
From the text: insulin concentration: Ultra-sensitive mouse insulin ELISA kit (Morinaga Institute of Biological Science, Inc.) leptin concentration: mouse/rat leptin ELISA kit (Morinaga Institute of Biological Science, Inc.) adiponectin concentration: mouse/rat adiponectin ELISA kit (Otsuka Pharmaceutical Co., Ltd.) Triglyceride: Lab Assay Kit (Wako) TNF-α, IL-1β concentration: ELISA kit (Proteintech) ALT, AST levels: Assay Kit (Funakoshi Co., Ltd.)

[14] = tested on: Alzheimer's disease model mouse; settings: cited from earlier work
[15] = tested on: liver fatty acid synthesis-related genes; assay: Liver fatty acid synthesis-related gene expression, RT PCR; type: in vivo, C57BL/6J mice; settings: high-fat diet+3% taxifolin vs high-fat diet only, 12 weeks
From the text: Srebp1c, Lxra, FAS, Scd1, PPARα, Cpt1a gene expression: Real-time Quantitative RT PCR

[16] = tested on: AMPK; assay: Liver AMPK phosphorylation, Western blotting; type: in vivo, C57BL/6J mice; settings: 12 weeks
From the text: (§2) AMPK phosphorylation, ACC phosphorylation: Western blotting

[17] = tested on: F4/80, αSMA, TGF-β1 protein; assay: Liver fibrosis index protein amount, Western blotting; type: in vivo, C57BL/6J mice; settings: 12 weeks
From the text: F4/80, αSMA, TGF-β1 protein amount: Western blotting

[18] = Tissue weight at autopsy; type: in vivo, C57BL/6J mice; settings: high-fat diet+3% taxifolin vs high-fat diet only, 12 weeks
Procedure: The last fasting blood glucose was measured 5 days after the day of PGTT, and all blood samples were collected under ether anesthesia, then the mice were euthanized by cervical dislocation, and samples were collected and partially weighed as shown in Table 3 below.

[19] = tested on: ACC; assay: Liver ACC phosphorylation, Western blotting; type: in vivo, C57BL/6J mice; settings: 12 weeks
From the text: as §2

[20] = tested on: type 1 diabetes model rat; settings: non-patent document 11; cited from earlier work
[21] = tested on: UCP1 gene; assay: UCP1 gene expression in brown adipose tissue, real-time RT PCR; type: in vivo, C57BL/6J mice; settings: high-fat diet+3% taxifolin vs high-fat diet only, 12 weeks
From the text: (vii) Histological Analysis of the Liver Observation of morphology and fat accumulation: Hematoxylin Eosin (HE) staining Observation of fibrosis: Azan staining, SiriusRed staining, immunohistochemistry (anti-F4/80 antibody) (viii) Analysis of Brown Adipocytes and UCP1 Target tissue: Brown adipose tissue Target: UCP1 gene Means of analysis: real-time RT PCR analysis

[22] = high-fat diet+3% taxifolin vs high-fat diet only
[23] = normal diet+3% taxifolin vs normal diet only
[24] = liver tissue, high-fat diet+3% taxifolin vs high-fat diet only

## O=C1c2c(O)cc(O)cc2O[C@H](c2ccc(O)c(O)c2)[C@H]1O [taxifolin]
[1]
  Cd36 gene expression: significantly decreased
[2]; high-fat diet+3% taxifolin vs high-fat diet only, 4 weeks
  body weight: significant difference
[2]; normal diet+3% taxifolin group vs all other groups, 8 weeks
  body weight: significant difference in weight loss
[2]; normal diet+3% taxifolin group vs other groups, 12 weeks
  body weight: no weight gain was observed
[2]; normal diet+3% taxifolin group, 6 weeks
  body weight: significant difference in weight loss
[3]
  safety for intake: safe for intake
[4]
  F4/80 gene expression: significantly decreased
  IL-1β gene expression: significantly decreased
  TNF-α gene expression: significantly decreased
[5]
  NF-κB p65 phosphorylation: significantly decreased
[5]; P=0.1045
  P38 MAPK phosphorylation: decreasing trend
[5]; P=0.1701
  c-Jun amino-terminal kinase (JNK) phosphorylation: decreasing trend
[6]; [22]
  fasting blood glucose (FIG. 6A): significantly decreased
[6]; high-fat diet+3% taxifolin vs high-fat diet only, IPGTT
  blood glucose area under the curve (AUC): significantly decreased
[6]; normal diet+3% taxifolin group
  blood glucose level at 60 min after start of intraperitoneal glucose tolerance test: significantly lower
  fasting blood glucose (FIG. 3A): significantly lower
[6]; [23]
  fasting blood glucose (FIG. 6A): significantly decreased
[7]
  PAI1 gene expression: significantly decreased
  TGF-β1 gene expression: significantly decreased
  αSMA gene expression: significantly decreased
[7]; P=0.07
  Collagen 1 gene expression: decreasing trend
[8]; [22]
  Catalase gene expression: significantly decreased
  CuZn-SOD gene expression: significantly decreased
  GP-x gene expression: significantly decreased
  Mn-SOD gene expression: significantly decreased
[8]; [23]
  Mn-SOD gene expression: significantly decreased
[9]; 8 weeks
  rectal temperature: significantly higher
[9]; 12 weeks
  rectal temperature: trend was also observed
[10]; [22]
  concentration of MDA in the liver: significantly decreased
  concentration of malondialdehyde (MDA) in blood: significantly decreased
[10]; [23]
  concentration of MDA in the liver: significantly decreased
[11]
  anti-oxidation action: anti-oxidation action
[12]; high-fat diet+3% taxifolin group vs high-fat diet-only group
  hepatic crown-like structures (hCLS), anti-F4/80 immunohistochemical staining: hardly observed
[12]; [22]
  fat accumulation in liver, HE staining: markedly reduced
[12]; [24]
  amount of collagen stained blue, Azan staining: reduced
  amount of collagen stained red, Sirius Red staining: decreased
[13]
  blood ALT levels: significantly decreased
  blood insulin concentration: significantly decreased
  blood leptin concentration: significantly decreased
  insulin resistance index (HOMA-R): significantly decreased
  liver triglyceride concentration: significantly decreased
[13]; P=0.076
  blood TNF-α concentration: tendency to decrease
[13]; P=0.079
  blood triglyceride concentration: decreasing trend
[13]; P=0.0932
  blood IL-1β concentration: tendency to decrease
[14]
  amyloid P coagulation: suppression of amyloid P coagulation
  brain blood flow: improvement of brain blood flow
  spatial recognition function in the water maze test: improvement of spatial recognition function
[15]
  FAS gene expression: significantly decreased
  Lxrα gene expression: significantly decreased
  Scd1 gene expression: significantly decreased
  Srebp1c gene expression: significantly decreased
[16]; [22]
  AMPK phosphorylation: significantly increased
[16]; [23]
  AMPK phosphorylation: significantly increased
[17]; [22]
  F4/80 protein amount: significantly decreased
[17]; high-fat diet+3% taxifolin vs high-fat diet only, P=0.054
  αSMA protein amount: decreasing trend
[17]; [23]
  F4/80 protein amount: decrease was significant
  TGF-β1 protein amount: significantly decreased
[18]
  brown adipose tissue weight (BAT weight): significantly decreased
  epididymal fat weight (EPI WAT weight): significantly decreased
  liver weight: significantly decreased
[19]; [22]
  ACC phosphorylation: significantly increased
[19]; [23]
  ACC phosphorylation: significantly increased
[20]
  blood glucose: blood glucose-improving effects
[21]
  UCP1 gene expression: significantly increased
